One experiment concerns the target Mcl-1 (Homo sapiens (Human), UniProt Q07820). As to the kind of experiment: TR-FRET binding assay, FITC-Bak peptide and MBP-tagged Mcl-1. The note with it: read-out: Ki for Inhibition of Mcl-1 by TR-FRET assay. As for the experimental part:
Compounds are diluted in DMSO in a 16-point, semilog serial dilution scheme. […] The plate was mixed and incubated for 3 hours at room temperature. […] TR-FRET signal is plotted and IC50 and Ki values are calculated in the same manner as the fluorescence polarization anisotropy based competition assays.
On the technique in general: In TR-FRET formats the signal depends on donor and acceptor labels being close together.

The subject of experiment [1] is H929 human cancer cell lines. As to the kind of experiment: Cellular viability / proliferation (Cell TiterGlo, 72 h). It counts as cell-based. In short, it runs like this:
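Top dose 50 μM, serially diluted 2-fold, applied one day after seeding (1,000 cells/well, 10% FBS), DMSO below 1%.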

[2] abbreviates: Homo sapiens, NCI-H929, 72 h, read-out: GI50 on cellular proliferation of H929 human cancer cell lines, H929 cells, 72 h, Cell TiterGlo, 10% FBS.

This note sets out measurements from US11596639B2, “Substituted indole Mcl-1 inhibitors” (Vanderbilt University, priority 2016, dated 2023).

Molecules are shown by their SMILES. pKi: −log10 of the molar value. Read-outs that look alike come from different tables or passages of the source.

Mcl-1, sequence (Q07820 172-327): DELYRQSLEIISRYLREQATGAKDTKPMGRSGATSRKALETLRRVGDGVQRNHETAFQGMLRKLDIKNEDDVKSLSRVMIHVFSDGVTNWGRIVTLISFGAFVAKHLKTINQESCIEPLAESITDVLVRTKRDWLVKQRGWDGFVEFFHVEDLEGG

Take `Cc1cc(OCCCc2c3n(c4c(-c5c(C)nn(C)c5C)c(Cl)ccc24)[C@H](C)CN(c2cc(C(=O)N4CCN(C)CC4)cc4cc(C(=O)O)n(C)c24)C3=O)cc(C)c1Cl` [Example 626, (R)-7-(7-chloro-10-(3-(4-chloro-3,5-dimethylphenoxy)propyl)-4-methyl-1-oxo-6-(1,3,5-trimethyl-1H-pyrazol-4-yl)-3,4-dihydropyrazino[1,2-a]indol-2(1H)-yl)-1-methyl-5-(4-methylpiperazine-1-carbonyl)-1H-indole-2-carboxylic acid]: the negative-log Ki (pKi) at Mcl-1 is over 9.70. Moreover, the GI50 in experiment [1] (setting [2]) was found to be 4400 nM.

With `COCCOCCOc1cc(N2C[C@@H](C)n3c(c(CCCOc4cc(C)c(Cl)c(C)c4)c4ccc(Cl)c(-c5c(C)ncnc5C)c43)C2=O)c2c(c1)cc(C(=O)O)n2C` [Example 631, (R)-7-(7-chloro-10-(3-(4-chloro-3,5-dimethylphenoxy)propyl)-6-(4,6-dimethylpyrimidin-5-yl)-4-methyl-1-oxo-3,4-dihydropyrazino[1,2-a]indol-2(1H)-yl)-5-(2-(2-methoxyethoxy)ethoxy)-1-methyl-1H-indole-2-carboxylic acid], the pKi at Mcl-1 was over 9.70. Besides, in experiment [1] (setting [2]), the GI50 came to 300 nM.

Regarding `Cc1cc(OCCCc2c3n(c4c(-c5c(C)cc(OCCN(C)C)cc5C)c(Cl)ccc24)[C@H](C)CN(c2cn(C)c4ccc(C(=O)O)cc24)C3=O)cc(C)c1Cl` [Example 509, (R)-3-(7-chloro-10-(3-(4-chloro-3,5-dimethylphenoxy)propyl)-6-(4-(2-(dimethylamino)ethoxy)-2,6-dimethylphenyl)-4-methyl-1-oxo-3,4-dihydropyrazino[1,2-a]indol-2(1H)-yl)-1-methyl-1H-indole-5-carboxylic acid], the negative-log Ki (pKi) on Mcl-1 is 8.80. The GI50 in experiment [1] (setting [2]) was 390 nM.

Regarding `Cc1cc(N2C[C@@H](C)n3c(c(CCCOc4cc(C)c(Cl)c(C)c4)c4ccc(Cl)c(-c5c(C)nn(C)c5C)c43)C2=O)c2c(c1)cc(C(=O)O)n2CCOC(C)C` [Example 578, (R)-7-(7-chloro-10-(3-(4-chloro-3,5-dimethylphenoxy)propyl)-4-methyl-1-oxo-6-(1,3,5-trimethyl-1H-pyrazol-4-yl)-3,4-dihydropyrazino[1,2-a]indol-2(1H)-yl)-1-(2-isopropoxyethyl)-5-methyl-1H-indole-2-carboxylic acid], at Mcl-1, the pKi was over 9.70. In addition, the GI50 in experiment [1] (setting [2]) stood at 390 nM.

As for `Cc1cc(OCCCc2c3n(c4c(-c5c(C)nn(C)c5C)c(Cl)ccc24)[C@H](C)CN(c2cc(OCc4ccccc4)cc4cc(C(=O)O)n(Cc5ccccn5)c24)C3=O)cc(C)c1Cl` [Example 588, (R)-5-(benzyloxy)-7-(7-chloro-10-(3-(4-chloro-3,5-dimethylphenoxy)propyl)-4-methyl-1-oxo-6-(1,3,5-trimethyl-1H-pyrazol-4-yl)-3,4-dihydropyrazino[1,2-a]indol-2(1H)-yl)-1-(pyridin-2-ylmethyl)-1H-indole-2-carboxylic acid], at Mcl-1, the pKi is 8.85. Further, the GI50 in experiment [1] (setting [2]) came to 1400 nM.

As for `Cc1cc(OCCCc2c3n(c4c(-c5c(C)nn(C)c5C)c(Cl)ccc24)[C@H](C)CN(c2cccc4c(C(=O)O)c5n(c24)CCN(C)C5=O)C3=O)cc(C)c1Cl` [Example 562, (R)-7-chloro-10-(3-(4-chloro-3,5-dimethylphenoxy)propyl)-2′,4-dimethyl-1,1′-dioxo-6-(1,3,5-trimethyl-1H-pyrazol-4-yl)-1′,2′,3,3′,4,4′-hexahydro-1H-[2,6′-bipyrazino[1,2-a]indole]-10′-carboxylic acid], the pKi on Mcl-1 was 9.01. The GI50 in experiment [1] (setting [2]) came to 1200 nM.

In the case of `Cc1cc(OCCCc2c3n(c4c(-c5c(C)nn(C)c5C)c(Cl)ccc24)[C@H](C)CN(c2cn(C)c4ccc(-n5nnnc5C)nc24)C3=O)cc(C)c1Cl` [Example 679, (R)-7-Chloro-10-(3-(4-chloro-3,5-dimethylphenoxy)propyl)-4-methyl-2-(1-methyl-5-(5-methyl-JH-tetrazol-1-yl)-1H-pyrrolo[3,2-b]pyridin-3-yl)-6-(1,3,5-trimethyl-1H-pyrazol-4-yl)-3,4-dihydropyrazino[1,2-a]indol-1(2H)-one], the pKi at Mcl-1 is 8.51. Further, the GI50 in experiment [1] (H929 cells, 72 h, Cell TiterGlo, 10% FBS, read-out: GI50 on cellular proliferation of H929 human cancer cell lines) turned out to be 940 nM.

`Cc1cc(OCCCc2c3n(c4c(-c5c(C)nn(C)c5C)c(Cl)ccc24)[C@H](C)CN(c2cc(C(=O)N4CCOCC4)cc4cc(C(=O)O)n(C)c24)C3=O)cc(C)c1Cl` [Example 591, (R)-7-(7-chloro-10-(3-(4-chloro-3,5-dimethylphenoxy)propyl)-4-methyl-1-oxo-6-(1,3,5-trimethyl-1H-pyrazol-4-yl)-3,4-dihydropyrazino[1,2-a]indol-2(1H)-yl)-1-methyl-5-(morpholine-4-carbonyl)-1H-indole-2-carboxylic acid]: the pKi on Mcl-1 is over 9.70. For the same molecule, in experiment [1] (setting [2]), the GI50 worked out at 2800 nM.

With `COCCOc1cc(N2C[C@@H](C)n3c(c(CCCOc4cc(C)c(Cl)c(C)c4)c4ccc(Cl)c(-c5c(C)nn(C)c5C)c43)C2=O)c2c(c1)cc(C(=O)O)n2Cc1cccc(C)n1` [Example 540, (R)-7-(7-Chloro-10-(3-(4-chloro-3,5-dimethylphenoxy)propyl)-4-methyl-1-oxo-6-(1,3,5-trimethyl-1H-pyrazol-4-yl)-3,4-dihydropyrazino[1,2-a]indol-2(1H)-yl)-5-(2-methoxyethoxy)-1-((6-methylpyridin-2-yl)methyl)-1H-indole-2-carboxylic acid], on Mcl-1, the pKi was over 9.70. In addition, in experiment [1] (setting [2]), the GI50 was under 200 nM.

On to `COCCOC1CCN(Cc2cc(N3C[C@@H](C)n4c(c(CCCOc5cc(C)c(Cl)c(C)c5)c5ccc(Cl)c(-c6c(C)nn(C)c6C)c54)C3=O)c3c(c2)cc(C(=O)O)n3C)CC1` [Example 650, (R)-7-(7-chloro-10-(3-(4-chloro-3,5-dimethylphenoxy)propyl)-4-methyl-1-oxo-6-(1,3,5-trimethyl-1H-pyrazol-4-yl)-3,4-dihydropyrazino[1,2-a]indol-2(1H)-yl)-5-((4-(2-methoxyethoxy)piperidin-1-yl)methyl)-1-methyl-1H-indole-2-carboxylic acid], for which the negative-log Ki (pKi) at Mcl-1 is over 9.70. In experiment [1] (setting [2]), the GI50 was 210 nM.

`COCCn1c(C(=O)O)cc2cc(C)cc(N3C[C@@H](C)n4c(c(CCCOc5cc(C)c(Cl)c(C)c5)c5ccc(Cl)c(-c6c(C)nc(CN7CCOCC7)nc6C)c54)C3=O)c21` [Example 717, (R)-7-(7-chloro-10-(3-(4-chloro-3,5-dimethylphenoxy)propyl)-6-(4,6-dimethyl-2-(morpholinomethyl)pyrimidin-5-yl)-4-methyl-1-oxo-3,4-dihydropyrazino[1,2-a]indol-2(1H)-yl)-1-(2-methoxyethyl)-5-methyl-1H-indole-2-carboxylic acid]: on Mcl-1, the pKi was over 9.70. Further, the GI50 in experiment [1] (setting [2]) is under 200 nM.

For `COc1ccc(N2C[C@@H](C)n3c(c(CCCOc4cc(C)c(Cl)c(C)c4)c4ccc(Cl)c(-c5c(C)nn(C)c5C)c43)C2=O)c2c1c(C(=O)O)cn2Cc1ccccn1` [Example 617, (R)-7-(7-chloro-10-(3-(4-chloro-3,5-dimethylphenoxy)propyl)-4-methyl-1-oxo-6-(1,3,5-trimethyl-1H-pyrazol-4-yl)-3,4-dihydropyrazino[1,2-a]indol-2(1H)-yl)-4-methoxy-1-(pyridin-2-ylmethyl)-1H-indole-3-carboxylic acid], the negative logarithm of the Ki (pKi) on Mcl-1 is over 9.70. The GI50 in experiment [1] (setting [2]) came out at 440 nM.

For the molecule `COCCn1c(C(=O)O)cc2cc(OC)cc(N3C[C@@H](C)n4c(c(CCCOc5cc(C)c(Cl)c(C)c5)c5ccc(Cl)c(-c6c(C)nn(C)c6C)c54)C3=O)c21` [Example 665, (R)-7-(7-chloro-10-(3-(4-chloro-3,5-dimethylphenoxy)propyl)-4-methyl-1-oxo-6-(1,3,5-trimethyl-1H-pyrazol-4-yl)-3,4-dihydropyrazino[1,2-a]indol-2(1H)-yl)-5-methoxy-1-(2-methoxyethyl)-1H-indole-2-carboxylic acid], the pKi at Mcl-1 was over 9.70. Moreover, in experiment [1] (setting [2]), the GI50 was 280 nM.

As to `Cc1cc(OCCCc2c3n(c4c(-c5c(C)nn(C)c5C)c(Cl)ccc24)[C@H](C)CN(c2cc(CCN4CCN(C)CC4)cc4cc(C(=O)O)n(C)c24)C3=O)cc(C)c1Cl` [Example 725, (R)-7-(7-chloro-10-(3-(4-chloro-3,5-dimethylphenoxy)propyl)-4-methyl-1-oxo-6-(1,3,5-trimethyl-1H-pyrazol-4-yl)-3,4-dihydropyrazino[1,2-a]indol-2(1H)-yl)-1-methyl-5-(2-(4-methylpiperazin-1-yl)ethyl)-1H-indole-2-carboxylic acid], the negative logarithm of the Ki (pKi) on Mcl-1 was over 9.70. For the same molecule, the GI50 in experiment [1] (setting [2]) was under 200 nM.

For `Cc1cc(OCCCc2c3n(c4c(-c5c(C)nn(C)c5C)c(Cl)ccc24)[C@H](C)CN(c2cn(Cc4ccc(F)c(F)c4)c4ccc(C(=O)O)cc24)C3=O)cc(C)c1Cl` [Example 645, (R)-3-(7-chloro-10-(3-(4-chloro-3,5-dimethylphenoxy)propyl)-4-methyl-1-oxo-6-(1,3,5-trimethyl-1H-pyrazol-4-yl)-3,4-dihydropyrazino[1,2-a]indol-2(1H)-yl)-1-(3,4-difluorobenzyl)-1H-indole-5-carboxylic acid], the pKi on Mcl-1 is 8.48. In addition, in experiment [1] (setting [2]), the GI50 came to 3700 nM.

Turning to `Cc1ccnc(Cn2cc(C(=O)O)c3cccc(N4C[C@@H](C)n5c(c(CCCOc6cc(C)c(Cl)c(C)c6)c6ccc(Cl)c(-c7c(C)nn(C)c7C)c65)C4=O)c32)c1` [Example 484, (R)-7-(7-Chloro-10-(3-(4-chloro-3,5-dimethylphenoxy)propyl)-4-methyl-1-oxo-6-(1,3,5-trimethyl-1H-pyrazol-4-yl)-3,4-dihydropyrazino[1,2-a]indol-2(1H)-yl)-1-((4-methylpyridin-2-yl)methyl)-1H-indole-3-carboxylic acid], the negative-log Ki (pKi) on Mcl-1 is over 9.70. For the same molecule, the GI50 in experiment [1] (read-out: GI50 on cellular proliferation of H929 human cancer cell lines, H929 cells, 72 h, Cell TiterGlo, 10% FBS) worked out at 310 nM.

The term pKi denotes the Ki on a negative log10 scale, so that one unit is a factor of ten.
